Experiments:
[1] = system: human colon carcinoma (HT-29); assay: HT-29 xenograft efficacy study
Description: Healthy young male nude mice were subcutaneously injected with 5 million of HT-29 cells.

in vivo [2] = conditions: female, ICR, mouse, iv
Procedure: Plasma was obtained from three individual animals in each group at 5 minutes, 1, 2, 4, or 6 hr.

[3] = Metabolism and clearance of Suc-Leu-Ala-Leu-Dox in mice (plasma, urine); assay type: in vivo, mouse
Procedure: Plasma samples of 100 μl were transferred to microcentrifuge tubes (1.5 mL) and an internal standard of daunorubicin (20 μL at 0.5 mg/ml) was added together with acetonitrile (400 μl). The tubes were capped and briefly vortexed followed by centrifugation at 14,000 rpm. 420 μl from each tube was removed and dried in vacuo. Each sample was reconstituted in 65 μl 20 mM aqueous ammonium formate (AF) pH 4.5 buffer containing acetonitrile (20%) prior to analysis by reverse phase liquid chromatography in combination with tandem mass spectrometry (LC MS/MS).
Urine was collected at 2 and 24 hours post administration from pairs of mice in metabolic cages. Urine samples were diluted with AF buffer containing acetonitrile (20%) to give a target analyte concentration within the practical range of the LC MS/MS assay. 30 μl of each diluted sample was placed in a micro centrifuge tube (1.5 ml) and an internal standard of daunorubicin (20 μL at 0.5 mg/ml) was added together with 50 μl of AF buffer containing acetonitrile (20%). Each sample was then analyzed by LC MS/MS.
An Agilent HP1100 HPLC with DAD detector and Chemstation software was coupled to a PE Sciex API 365 mass spectrometer with an electrospray ion source. HPLC was performed on a TSK-Gel Super ODS, […], 4.6×50 mm (TosoHaas) reversed phase column equipped with a […] C18 guard disc (Higgins Analytical) and stainless steel frit (Upchurch Scientific). Chromatography was performed at room temperature. The flow rate was 0.5 ml/min. Injection volume was 50 μl. Gradient elution was performed using a mobile phase of AF buffer with increasing amounts of acetonitrile. The API 365 was operated at 365° C. in a multiple reaction monitoring mode, set to monitor specific analyte parent-daughter ion pairs. Integration of chromatograms was performed by MacQuan software (PE Sciex) and quantitation of each analyte obtained by comparison to previously obtained calibration curves. Daunorubicin was used as an internal standard in all cases.

Namalwa cells (CD10pos) = assay: cells; assay type: cell-based, human; conditions: 24 hours, 3H-thymidine
Procedure: (§1) In addition to LNCaP, a number of B-cell lines, such as Ramos and Namalwa cells express CD10 (CD10^pos cells).
(§2) Suspension cells, BALL-1, Ramos and Namalwa cells were cultured in RPMI media containing 10% heat inactivated fetal calf serum (FCS). On the day of the study, the cells were collected, washed and resuspended at a concentration of 0.5×10^6 cells/ml in RPMI containing 10% FCS. 100 μl of cell suspension was added to 96 well plates. […] Finally 10 μl of a 100 μCi/ml ^3H-thymidine was added per well and the plates were incubated for 24 hours. The plates were harvested using a 96 well Harvester (Packard Instruments) and counted on a Packard Top Count counter. Four parameter logistic curves were fitted to the ^3H-thymidine incorporation as a function of drug molarity using Prism software to determine IC50 values.

[4] = Metabolism and clearance of Suc-Met-Ala-Leu-Dox in mice (plasma, urine); assay type: in vivo, mouse
Procedure: Plasma samples were obtained at 1 or 4 hours, and urine was collected at 2 and 24 hours post administration. Levels of the prodrug and metabolites were measured by LC-MS with UV detection of doxorubicin.

tumor-bearing nude mice = assay: Repeat-dose tolerability / repeat dose MTD in tumor bearing mice; assay type: in vivo, mouse; conditions: Table 11, five doses at five day or 1 week intervals
Description: (§3) In one study, one animal in each dose group (n=8) was terminated as a possible drug-related toxicity death late in the study, at Days 58 and 57 in the low and high dose-groups respectively. The safety of the compound was evidenced by little body weight loss in either the high or low dose groups (less than 5% of the initial weight) during the 60-day observation period, in surviving animals (FIG. 14). In the other study, both the high and low dose were well tolerated. Only one animal in the high dose group (n=10) had over 15% of body weight loss at the end of the study (Day 61).
(§4) In repeat-dose studies in tumor bearing mice, groups of ten mice were dosed with various amounts of prodrug for a total of five doses at either five day or 1 week intervals. […] Thus, the prodrugs permit a much greater amount of therapeutic agent to be delivered to the body as a whole and thus to the vicinity of the target cell.

in vivo [5] = conditions: female, mouse, iv
[6] = SD-MTD studies, 60 days, normal mice (Example 14); conditions: mouse, in vivo; for MTD: Table 12, re-analyzed data and new data
Procedure: In the single dose Maximum Tolerated Dose (SD-MTD) studies, groups of normal mice were administered intravenous bolus doses of the prodrug. The mice were observed daily for 60 days and body weights measured twice weekly. The SD-MTD was estimated to be equal to the highest dose that produced no death in mice after 60 days.

[7] = system: human colon carcinoma (LS174T); assay: LS174T xenograft efficacy study; conditions: doxorubicin-insensitive model
Procedure: Healthy young female nude mice were subcutaneously implanted with chunks of LS174T. […] Tumor size and body weights were measured twice weekly for up to 60 days.

normal ICR mice = assay: Single dose Maximum Tolerated Dose (SD-MTD) study, 49 days, ICR mice (Examples 5 and 6)
Procedure: (§5) In a second single dose Maximum Tolerated Dose (SD-MTD) study, groups of five normal ICR mice were administered intravenous bolus doses of Suc-Leu-Ala-Leu-Dox. The mice were observed daily for 49 days and body weights measured twice weekly.
(§6) In a second single dose Maximum Tolerated Dose (SD-MTD) study, groups of five normal ICR mice were administered intravenous bolus doses of Suc-Leu-Ala-Gly-Dox. The mice were observed daily for 49 days and body weights measured twice weekly.

[8] = as above; conditions: mouse, in vivo, iv, SD-MTD (mg/kg), intravenous bolus, ICR mice, Day 49
Procedure: as §5, §6

Ramos cells (CD10pos) = assay type: cell-based, human; conditions: 24 hours, 3H-thymidine
Procedure: as §1, §2

BALL-1 cells (CD10neg) = assay type: cell-based, human; conditions: Ball-1 (CD10neg), 24 hours, 3H-thymidine
Procedure: as §1, §2

[9] = system: LNCaP (prostate carcinoma) cells; conditions: 48 hours, 3H-thymidine incorporation
Procedure: (§7) Adherent cells, LNCaP (prostate carcinoma), HT-29 (colon carcinoma) and PC-3 (prostate carcinoma), were cultured in DMEM media containing 10% heat inactivated fetal calf serum (FCS). On the day of the study the cells were detached from the plate with a trypsin solution. The collected cells were washed and resuspended at a concentration of 0.25×10^6 cells/ml in DMEM containing 10% FCS. 100 μl of cell suspension were added to 96 well plates and the plates were incubated for 3 hours to allow the cells to adhere. […] The plates were then incubated for 24 hours, pulsed with 10 μl of a 100 μCi/ml ^3H-thymidine and incubated for an additional 24 hours (total incubation time 48 hours). The plates were harvested using a 96 well Harvester (Packard Instruments) and counted on a Packard Top Count Counter. Four parameter logistic curves were fitted to the ^3H-thymidine incorporation as a function of drug molarity using Prism software to determine IC50 values.
(§8) Prostate carcinoma cells, LNCaP and PC-3 cells or colon carcinoma cells HT-29, were incubated with increasing concentration of the indicated compounds for 48 hours and cellular proliferation was measured using the ^3H-thymidine assay.

[10] = system: HT-29 (colon carcinoma) cells; conditions: HT29, 48 hours, 3H-thymidine incorporation
Procedure: as §7, §8

[11] = system: PC-3 (prostate carcinoma) cells; conditions: PC-3, 48 hours, 3H-thymidine incorporation
Procedure: as §7, §8

[12] = Repeat-dose tolerability / repeat dose MTD in tumor bearing mice; assay type: in vivo, mouse; conditions: mouse, in vivo, Table 12, re-analyzed
Description: as §3, §4

[13] = 4.0 mg/kg every 7 days for 5 doses
[14] = after single intravenous 117 mg/kg Suc-Leu-Ala-Leu-Dox
[15] = after single intravenous 120 mg/kg Suc-Met-Ala-Leu-Dox

SMILES: COc1cccc2c1C(=O)c1c(O)c3c(c(O)c1C2=O)C[C@@](O)(C(=O)CO)C[C@@H]3O[C@H]1C[C@H](N)[C@H](O)[C@H](C)O1 [Doxorubicin, reference compound]
- Calculated Mean Day of Survival [1, 13]: 30.0 ± 3.7 days
- Extension of Mean Day of Survival over controls [1, 13]: 16.7%
- Number of Long Term Survivors [1, 13]: 0/10
- Calculated Mean Day of Survival ([1]; 4.0 mg/kg every 7 days for 5 doses, listed as doxorubicin): 30 days
- AUC (in vivo [2]): 3.3 µM·h
- Urine 2 hr, percent of administered dose [3, 14]: 0.05%
- Urine 24 hr, percent of administered dose [3, 14]: 0.15%
- Plasma 1 hr, percent of administered dose ([3]; female, mouse, in vivo, iv, 117 mg/kg, 1 h): 0.002%
- Plasma 4 hr, percent of administered dose ([3]; female, mouse, in vivo, iv, 117 mg/kg, 4 h): 0.000%
- IC50 (Namalwa cells (CD10pos); Homo sapiens): 0.01 µM
- Urine 2 hr, percent of administered dose [4, 15]: 0.30%
- Urine 24 hr, percent of administered dose [4, 15]: 0.61%
- Plasma 1 hr, percent of administered dose ([4]; female, mouse, in vivo, iv, 120 mg/kg, 1 h): 0.002%
- Plasma 4 hr, percent of administered dose ([4]; female, mouse, in vivo, iv, 120 mg/kg, 4 h): 0.002%
- Optimal Efficacy Repeat Dose (mg/kg), value in parentheses (doxorubicin equivalent dose) (tumor-bearing nude mice): 4 (4) mg/kg
- Optimal Efficacy Repeat Dose (mg/kg) (tumor-bearing nude mice; tumor bearing mice, 60 days): 4 (4) mg/kg
- MTD at 28 days (in vivo [5]): 4 to 8 mg/kg
- MTD at 60 days ([6]; Table 11, doses as first stated, intravenous bolus, 60 days): 4 mg/kg
- anti-tumor activity in LS174T xenograft [7]: virtually inactive

SMILES: COc1cccc2c1C(=O)c1c(O)c3c(c(O)c1C2=O)C[C@@](O)(C(=O)CO)C[C@@H]3O[C@H]1C[C@H](NC(=O)CNC(=O)[C@H](C)NC(=O)[C@H](CC(C)C)NC(=O)CCC(=O)O)[C@H](O)[C@H](C)O1 [Suc-Leu-Ala-Gly-Dox]
- Toxicity (Weight Loss > 20%) ([1]; 40 mg/kg every 7 days for 5 doses): 0/7
- Toxicity (Weight Loss > 20%) ([1]; 67 mg/kg every 7 days for 5 doses): 0/7
- AUC (in vivo [2]; 100 umol/kg): 310 µM·h
- acute toxicity, within 24 hours (normal ICR mice; any dose level): no acute toxicity
- mortalities, morbidity or significant body weight loss over the 49 day study (normal ICR mice; any dose level up to 220 mg/kg): no mortalities, morbidity or significant body weight loss
- SD-MTD Molar Ratio (Dox =) (normal ICR mice; molar basis versus doxorubicin alone): 8.8
- MTD [8]: ≥ 220 mg/kg
- IC50 (Namalwa cells (CD10pos)): 17.3 µM
- IC50 (Ramos cells (CD10pos)): 22.7 µM
- IC50 (BALL-1 cells (CD10neg)): 23.3 µM
- IC50 [9]: 15 µM
- IC50 [10]: 32 µM
- IC50 [11]: 39 µM
- MTD ([12]; Repeat Dose MTD (mg/kg), value in parentheses: doxorubicin equivalent dose, Q 5 D × 5 or Q 7 D × 5): > 70 mg/kg
- MTD ([12]; Q 5 D × 5 or Q 7 D × 5 as given per compound, read-out: Repeat Dose MTD): > 110 mg/kg
- MTD ([6]; SD MTD (mg/kg), value in parentheses: doxorubicin equivalent dose): > 141 mg/kg
- MTD ([6]; read-out: SD MTD): > 220 mg/kg

From patent US7214663B2, “Tripeptide prodrug compounds” (Medarex, Inc., priority 2001, dated 2007)
